Test results reported in patent publication US20110295343A1, “NEAR-INFRARED ELECTROMAGNETIC MODIFICATION OF CELLULAR STEADY-STATE MEMBRANE POTENTIALS” (priority 2008, published 2011).
Several values for one entry are separate records, joined by “and”; a condition that tells them apart may be missing. Equal values may be shown once. Read-outs that look alike come from different tables or passages of the source.

Experiments:
[1] = system: C. albicans; experiment: Colony counts of C. albicans plated with Lamisil or Sporanox after sub-lethal NIMELS laser (Example XIII); assay type: cell-based, Candida albicans; settings: for C. albicans Colony Counts, Control: no laser, group AF8, replicates 1-5; for C. albicans Colony Counts, Experimental: sub-lethal NIMELS laser (AF-8 dosimetry), replicates 1-5
Description: Similar cell culture and kinetic protocols were performed for all NIMELS irradiation with E. coli and C. albicans in vitro tests. […] A standardized suspension was aliquoted into selected wells in a 24-well tissue culture plate. Following laser treatments, 100 μL was removed from each well and serially diluted to 1:1000 resulting in a final dilution of 1:5×10^6 of initial culture. An aliquot of each final dilution were spread onto separate plates. The plates were then incubated at 37° C. for approximately 16-20 hours. Manual colony counts were performed and recorded.
The null hypothesis is μ1−μ2=0 and μ1−μ3=0 where: a) μ1 is sub-lethal dosimetry ftom the NIMEL laser system on C. albicans as a control and; b) μ2 is the same sub-lethal dosimetry from the NTMEL laser system on C. albicans with the addition of Sporanos at resistant MIC just below effectiveness level and; c) μ3 is the same sub-lethal dosimetry from the NIMEL laser system on C. albicans with the addition of Lamisil at resistant MIC just below effectiveness level.

[2] = system: S. aureus; settings: cited from earlier work
[3] = system: MRSA; experiment: CFU counts of MRSA plated on agar with antibiotic after sub-lethal NIMELS laser (Examples IX-XII); assay type: cell-based, Staphylococcus aureus; settings: antibiotic at resistant MIC just below effectiveness level
Text: The following parameters illustrate the general bacterial methods according to the invention as applied to MRSA for the in vitro Experiments V and VIII-XII.
The null hypothesis is μ1−μ2=0 and μ1−μ3=0 where:
a) μ1 is sub-lethal dosimetry from the NIMEL laser system on MRSA as a control and;
The null hypothesis is μ1−μ2=0 and μ1−μ3=0 where: • a) μ1 is sub-lethal dosimetry from the NIMEL laser system on MRSA as a control and; • b)μ2 is the same sub-lethal dosimetry from the NIMEL laser system on MRSA with the addition of tetracycline at resistant MIC just below effectiveness level and; • c) μ3 is the same sub-lethal dosimetry from the NIMEL laser system on MRSA with the addition of rifampin at resistant MIC just below effectiveness level.
The null hypothesis is μ1−μ2=0 and μ1−μ3=0 where: a) μ1 is sub-lethal dosimetry from the NIMEL laser system on MRSA as a control and; b)μ2 is the same sub-lethal dosimetry from the NIMEL laser system on MRSA with the addition of methicillin at resistant MIC just below effectiveness level and; […]

[4] = system: MRSA (ATCC BAA-43); experiment: MRSA/antimicrobial potentiation, CFU on TSB agar with and without antibiotic after laser (Example XXII, Experiments 1-4); assay type: cell-based, Staphylococcus aureus subsp. aureus; settings: for CFU/ml / CFU (single plate count) / AVG (CFU): Drug yes; for CFU (single plate count): agar with 30 μg/ml methicillin, 0.5 μg/ml penicillin G or 4 μg/ml erythromycin, 24 hrs 37° C., plates 1-5; for AVG (CFU): mean of 5 plates; for Drug Effect: CFU with drug relative to without drug; for Laser Effect (+Drug): Exp vs Cont, both with drug
Description: Four separate experiments have been performed.
Eight different laser dosages were used to treat a saline-suspension of logarithmically growing MRSA, labeled A1 to H1.
The treated and a control untreated suspension were diluted and plated in triplicate on trypic soy agar with or without 30 μg/ml methicillin After 24 hrs of growth at 37° C. colonies were counted.
CFU (colony forming units) were compared between the plates with and without methicillin for both control (untreated) and treated MRSA.
The treated and a control untreated suspension were diluted and plated in triplicate on trypic soy agar with or without 30 μg/mlmethicillin.
After 24 hrs of growth at 37° C. colonies were counted.
The treated and a control untreated suspension were diluted and plated in pentuplicate on trypic soy agar with or without 30 μg/ml methicillin.

[5] = Cont (no laser), groups A4/C4/E4
[6] = Cont (no laser), groups B4/D4/F4
[7] = Exp (laser 870+930 at 5 W 14 min, then 930 at 6 W 9 min), groups B4/D4/F4
[8] = Exp (laser 870+930 at 5.5 W 12 min, then 930 at 8 W 6 min), groups A4/C4/E4

CN(C/C=C/C#CC(C)(C)C)Cc1cccc2ccccc12 [Lamisil, terbinafine]
effect of sub-lethal NIMELS irradiation on antifungal action against C. albicans colonies ([1]; 0.5 ug/ml): potentiated by a sub-lethal dosimetry irradiation | C. albicans Colony Counts, Control ([1]; Lamisil 0.5 ug/ml): 290 and 335 and 334 and 280 | C. albicans Colony Counts, Experimental ([1]; Lamisil 0.5 ug/ml): 101 and 70 and 90 and 78 and 74

CCC(C)n1ncn(-c2ccc(N3CCN(c4ccc(OCC5COC(Cn6cncn6)(c6ccc(Cl)cc6Cl)O5)cc4)CC3)cc2)c1=O (stereo not shown) [Sporanox, itraconazole]
C. albicans Colony Counts, Control ([1]; Sporanox 0.5 ug/ml): 360 and 332 and 320 and 311 and 295 | C. albicans Colony Counts, Experimental ([1]; Sporanox 0.5 ug/ml): 110 and 86 and 91 and 80 and 107

CCCCCCCCCC(=O)N[C@@H](Cc1c[nH]c2ccccc12)C(=O)N[C@H](CC(N)=O)C(=O)N[C@@H](CC(=O)O)C(=O)N[C@@H]1C(=O)NCC(=O)N[C@@H](CCCN)C(=O)N[C@@H](CC(=O)O)C(=O)N[C@H](C)C(=O)N[C@@H](CC(=O)O)C(=O)NCC(=O)N[C@H](CO)C(=O)N[C@@H]([C@H](C)CC(=O)O)C(=O)N[C@@H](CC(=O)c2ccccc2N)C(=O)O[C@@H]1C [daptomycin]
daptomycin concentration to achieve a 3-log reduction ([2]; cell growth halted by erythromycin, within 2 h): 10 μg/ml | daptomycin concentration to achieve a 3-log reduction ([2]; used alone, stationary phase S. aureus, 10^10 CFU/ml): 32 μg/ml

CC1(C)S[C@@H]2[C@H](NC(=O)Cc3ccccc3)C(=O)N2[C@H]1C(=O)O [Penicillin, penicillin G]
effect of sub-lethal NIMELS irradiation on antibiotic action against MRSA colonies (words) [3]: successful reversal of MRSA resistance | CFU/ml [4, 5]: 3.25E+08 CFU/ml | CFU (single plate count) [4, 5]: 106 CFU and 99 CFU and 102 CFU and 113 CFU and 122 CFU | AVG (CFU) [4, 5]: 108.4 CFU | CFU/ml [4, 6]: 3.98E+08 CFU/ml | CFU (single plate count) [4, 6]: 101 CFU and 111 CFU and 138 CFU and 132 CFU and 182 CFU | AVG (CFU) [4, 6]: 132.8 CFU | Drug Effect [4, 5]: 0.75 | Drug Effect [4, 6]: 1.07 | CFU/ml [4, 7]: 7.14E+07 CFU/ml | AVG (CFU) [4, 7]: 23.8 CFU | Drug Effect [4, 7]: 0.31 | CFU/ml [4, 8]: 9.12E+07 CFU/ml | AVG (CFU) [4, 8]: 30.4 CFU | Drug Effect [4, 8]: 0.34 | Laser Effect (+Drug) ([4]; laser 870+930 at 5 W 14 min, then 930 at 6 W 9 min, groups B4/D4/F4): 0.18 | Laser Effect (+Drug) ([4]; laser 870+930 at 5.5 W 12 min, then 930 at 8 W 6 min, groups A4/C4/E4): 0.28 | synergistic effect of NIMELS with antibiotic in growth inhibition of MRSA colonies ([4]; FIG. 17): being potentiated by sub-lethal NIMELS dosimetry
